Laboratory results reported in US8309734B2 (Hoffmann-La Roche Inc., priority 2008, dated 2012).

Target: T1, human GPBAR1 receptor (Homo sapiens, UniProt Q8TDU6)
T1 construct: expressed in transfected cells
T1 sequence (Q8TDU6 1-330): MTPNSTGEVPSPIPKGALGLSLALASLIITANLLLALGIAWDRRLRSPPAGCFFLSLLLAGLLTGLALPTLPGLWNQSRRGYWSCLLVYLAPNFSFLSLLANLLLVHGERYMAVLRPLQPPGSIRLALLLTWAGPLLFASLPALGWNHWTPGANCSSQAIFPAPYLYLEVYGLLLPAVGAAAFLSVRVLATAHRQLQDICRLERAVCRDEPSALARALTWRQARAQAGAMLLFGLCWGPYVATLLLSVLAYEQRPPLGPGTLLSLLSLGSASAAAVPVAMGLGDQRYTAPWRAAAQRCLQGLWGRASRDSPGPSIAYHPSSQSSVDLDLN
Assay: functional cAMP assay in CHO-dhfr(minus) cells expressing human GPBAR1 receptors
Type: cell-based
Settings: cAMP increase (TR-FRET) in CHO-dhfr(minus) cells expressing human GPBAR1; compounds incubated 30 min at 30° C.

| Compound | EC50 [nM] |
| --- | --- |
| COc1cc(C(=O)O)ccc1CCc1cc(Cl)c(Oc2ncccc2C(=O)N2CCN(C3CC3)c3ccccc32)cc1Cl [Example 171, 4-(2-{2,5-Dichloro-4-[3-(4-cyclopropyl-3,4-dihydro-2H-quinoxaline-1-carbonyl)-pyridin-2-yloxy]-phenyl}-ethyl)-3-methoxy-benzoic acid] | 102 |
| O=C(O)/C=C/c1cc(Cl)c(Oc2ncccc2C(=O)N2CCN(C3CC3)c3ccccc32)cc1Cl [Example 172, 3-{2,5-Dichloro-4-[3-(4-cyclopropyl-3,4-dihydro-2H-quinoxaline-1-carbonyl)-pyridin-2-yloxy]-phenyl}-acrylic acid] | 132 |
| O=C(O)CCc1cc(Cl)c(Oc2ncccc2C(=O)N2CCN(C3CC3)c3ccccc32)cc1Cl [Example 173, 3-{2,5-Dichloro-4-[3-(4-cyclopropyl-3,4-dihydro-2H-quinoxaline-1-carbonyl)-pyridin-2-yloxy]-phenyl}-propionic acid] | 47 |
| COC(=O)C/C=C/c1cc(Cl)c(Oc2ncccc2C(=O)N2CCN(C3CC3)c3ccccc32)cc1Cl [Example 174, 4-{2,5-Dichloro-4-[3-(4-cyclopropyl-3,4-dihydro-2H-quinoxaline-1-carbonyl)-pyridin-2-yloxy]-phenyl}-but-3-enoic acid methyl ester] | 29 |
| O=C(O)C/C=C/c1cc(Cl)c(Oc2ncccc2C(=O)N2CCN(C3CC3)c3ccccc32)cc1Cl [Example 175, 4-{2,5-Dichloro-4-[3-(4-cyclopropyl-3,4-dihydro-2H-quinoxaline-1-carbonyl)-pyridin-2-yloxyl]-phenyl}-but-3-enoic acid] | 843 |
| O=C(O)CCCc1cc(Cl)c(Oc2ncccc2C(=O)N2CCN(C3CC3)c3ccccc32)cc1Cl [Example 176, 4-{2,5-Dichloro-4-[3-(4-cyclopropyl-3,4-dihydro-2H-quinoxaline-1-carbonyl)-pyridin-2-yloxy]-phenyl}-butyric acid] | 114 |
| O=C(O)CNC(=O)CCc1cc(Cl)c(Oc2ncccc2C(=O)N2CCN(C3CC3)c3ccccc32)cc1Cl [Example 177, (3-{2,5-Dichloro-4-[3-(4-cyclopropyl-3,4-dihydro-2H-quinoxaline-1-carbonyl)-pyridin-2-yloxy]-phenyl}-propionylamino)-acetic acid] | 63 |
| CN(CC(=O)O)C(=O)CCc1cc(Cl)c(Oc2ncccc2C(=O)N2CCN(C3CC3)c3ccccc32)cc1Cl [Example 178, [(b 3-{2,5-Dichloro-4-[3-(4-cyclopropyl-3,4-dihydro-2H-quinoxaline-1-carbonyl)-pyridin-2-yloxy]-phenyl}-propionyl)-methyl-amino]-acetic acid] | 96 |
| O=C(O)CCNC(=O)CCc1cc(Cl)c(Oc2ncccc2C(=O)N2CCN(C3CC3)c3ccccc32)cc1Cl [Example 179, 3-(3-{2,5-Dichloro-4-[3-(4-cyclopropyl-3,4-dihydro-2H-quinoxaline-1-carbonyl)-pyridin-2-yloxy]-phenyl}-propionylamino)-propionic acid] | 41 |
| O=C(O)C1CCCN1C(=O)CCc1cc(Cl)c(Oc2ncccc2C(=O)N2CCN(C3CC3)c3ccccc32)cc1Cl (stereo not drawn) [Example 180, 1-(3-{2,5-Dichloro-4-[3-(4-cyclopropyl-3,4-dihydro-2H-quinoxaline-1-carbonyl)-pyridin-2-yloxy]-phenyl}-propionyl)-pyrrolidine-2-carboxylic acid] | 71 |
| O=C(O)CCNC(=O)CCCc1cc(Cl)c(Oc2ncccc2C(=O)N2CCN(C3CC3)c3ccccc32)cc1Cl [Example 181, 3-(4-{2,5-Dichloro-4-[3-(4-cyclopropyl-3,4-dihydro-2H-quinoxaline-1-carbonyl)-pyridin-2-yloxy]-phenyl}-butyrylamino)-propionic acid] | 91 |
| COC(=O)c1cc(Cl)c(Oc2ncccc2C(=O)N2CCN(C3CC3)c3ccccc32)cc1Cl [Example 182, 2,5-Dichloro-4-[3-(4-cyclopropyl-3,4-dihydro-2H-quinoxaline-1-carbonyl)-pyridin-2-yloxy]-benzoic acid methyl ester] | 181 |
| COC(=O)CNC(=O)c1cc(Cl)c(Oc2ncccc2C(=O)N2CCN(C3CC3)c3ccccc32)cc1Cl [Example 183, {2,5-Dichloro-4-[3-(4-cyclopropyl-3,4-dihydro-2H-quinoxaline-1-carbonyl)-pyridin-2-yloxy]-benzoylamino}-acetic acid methyl ester] | 341 |
| O=C(c1ccccc1Oc1cc(Cl)ccc1Cl)N1CCN(C2CC2)c2ccccc21 [Example 184, (4-Cyclopropyl-3,4-dihydro-2H-quinoxalin-1-yl)-[2-(2,5-dichloro-phenoxy)-phenyl]-methanone] | 22 |
| O=C(c1ccncc1Oc1cc(Cl)ccc1Cl)N1CCOc2ccccc21 [Example 185, [3-(2,5-Dichloro-phenoxy)-pyridin-4-yl]-(2,3-dihydro-benzo[1,4]oxazin-4-yl)-methanone] | 92 |
